Laboratory results: patent US10758534B2 (Vertex Pharmaceuticals Incorporated, priority 2014, dated 2020)

The molecules below were run against T1, F508del (Homo sapiens, UniProt P13569, DEL508-508) (assay: Protocol 1: membrane potential optical assay (FLIPR III, voltage sensing dye), identification of potentiator compounds). Details: Table 3, compounds of Table 1.
T1 construct: expressed in transfected cells
Type: cell-based
Summary of the method: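 Read-out: change in voltage-sensing dye fluorescence (FLIPR III) as a measure of F508del conductance. Temperature-corrected (27° C, 24 hrs) NIH 3T3 cells expressing F508del are pretreated with potentiators, dye-loaded, then stimulated with forskolin under a chloride ion gradient using chloride-free gluconate bath.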

T1 sequence (P13569 with tags, fused parts or gaps DEL508-508): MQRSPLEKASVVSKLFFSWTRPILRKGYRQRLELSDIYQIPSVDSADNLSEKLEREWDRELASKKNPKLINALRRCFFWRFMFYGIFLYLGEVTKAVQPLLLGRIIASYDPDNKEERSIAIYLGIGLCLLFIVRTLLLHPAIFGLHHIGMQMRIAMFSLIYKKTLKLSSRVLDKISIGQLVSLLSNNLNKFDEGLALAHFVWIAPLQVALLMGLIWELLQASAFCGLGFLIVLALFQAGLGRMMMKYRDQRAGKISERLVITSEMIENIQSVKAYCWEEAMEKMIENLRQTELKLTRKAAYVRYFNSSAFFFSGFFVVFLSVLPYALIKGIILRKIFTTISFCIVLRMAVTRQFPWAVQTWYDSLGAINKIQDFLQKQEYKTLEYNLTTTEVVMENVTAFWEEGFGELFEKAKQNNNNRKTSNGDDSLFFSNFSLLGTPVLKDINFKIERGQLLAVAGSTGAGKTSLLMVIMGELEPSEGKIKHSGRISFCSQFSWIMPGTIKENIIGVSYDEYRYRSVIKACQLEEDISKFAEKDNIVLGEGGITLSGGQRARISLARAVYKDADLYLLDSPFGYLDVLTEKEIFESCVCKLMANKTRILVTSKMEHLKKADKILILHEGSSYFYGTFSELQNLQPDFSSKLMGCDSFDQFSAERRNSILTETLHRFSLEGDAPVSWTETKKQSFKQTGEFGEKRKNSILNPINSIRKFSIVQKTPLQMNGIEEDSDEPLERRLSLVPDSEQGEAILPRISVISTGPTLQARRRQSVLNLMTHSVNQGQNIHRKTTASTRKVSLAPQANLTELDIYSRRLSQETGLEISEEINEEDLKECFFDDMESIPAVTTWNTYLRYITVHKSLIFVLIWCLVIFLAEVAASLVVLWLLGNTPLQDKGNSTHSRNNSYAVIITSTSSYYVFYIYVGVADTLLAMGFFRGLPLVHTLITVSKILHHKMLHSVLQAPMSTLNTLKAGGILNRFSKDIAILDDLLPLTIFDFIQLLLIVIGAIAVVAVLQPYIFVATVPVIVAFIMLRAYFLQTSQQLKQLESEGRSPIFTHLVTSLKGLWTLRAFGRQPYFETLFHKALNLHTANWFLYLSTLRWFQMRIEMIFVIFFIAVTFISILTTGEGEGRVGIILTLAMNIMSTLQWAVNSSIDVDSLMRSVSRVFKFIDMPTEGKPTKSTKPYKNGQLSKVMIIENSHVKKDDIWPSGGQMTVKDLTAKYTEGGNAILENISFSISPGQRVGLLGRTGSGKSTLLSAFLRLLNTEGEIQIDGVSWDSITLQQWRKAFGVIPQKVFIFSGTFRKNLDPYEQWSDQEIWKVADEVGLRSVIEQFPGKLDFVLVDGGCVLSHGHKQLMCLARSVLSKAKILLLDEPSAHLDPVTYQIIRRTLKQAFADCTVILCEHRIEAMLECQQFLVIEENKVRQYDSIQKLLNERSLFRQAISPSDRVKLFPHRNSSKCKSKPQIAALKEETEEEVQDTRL

EC30	SMILES
++ (“++” means between 3 uM and 10 uM)	CC(C)(C)c1ccc(C(=O)NS(=O)(=O)c2cccc(N)n2)c(N2CCC(C(C)(C)O)CC2)n1 [Compound 1038, N-[(6-amino-2-pyridyl)sulfonyl]-6-tert-butyl-2-[4-(1-hydroxy-1-methyl-ethyl)-1-piperidyl]pyridine-3-carboxamide]
+++ (“+++” means <3 uM)	Cc1cc(C)c(CN2CCc3ccccc3CC2C(=O)NS(=O)(=O)c2ccccc2)c(C)c1 (centres unmarked) [Compound 1039, N-(benzenesulfonyl)-3-[(2,4,6-trimethylphenyl)methyl]-1,2,4,5-tetrahydro-3-benzazepine-4-carboxamide]
+++ (“+++” means <3 uM)	CC(C)Oc1ccc(-c2ccc(C(=O)NS(=O)(=O)c3cccc(N)n3)c(N3C(C)CCC3(C)C)n2)cn1 (centres unmarked) [Compound 1040, N-[(6-amino-2-pyridyl)sulfonyl]-6-(6-isopropoxy-3-pyridyl)-2-(2,2,5-trimethylpyrrolidin-1-yl)pyridine-3-carboxamide]
+++ (“+++” means <3 uM)	CC1CCN(c2nc(-c3cc(F)cc(OC(C)C)c3)ccc2C(=O)NS(=O)(=O)c2cc[nH]n2)CC1 [Compound 1042, 6-(3-fluoro-5-isopropoxy-phenyl)-2-(4-methyl-1-piperidyl)-N-(1H-pyrazol-3-ylsulfonyl)pyridine-3-carboxamide]
+++ (“+++” means <3 uM)	CC(C)Oc1ccc(-c2ccc(C(=O)NS(=O)(=O)c3cccc(N)n3)c(N3CCC(C(F)(F)F)CC3)n2)cn1 [Compound 1043, N-[(6-amino-2-pyridyl)sulfonyl]-6-(6-isopropoxy-3-pyridyl)-2-[4-(trifluoromethyl)-1-piperidyl]pyridine-3-carboxamide]
+++ (“+++” means <3 uM)	COc1ncc(-c2ccc(C(=O)NS(=O)(=O)c3cc[nH]n3)c(Oc3c(C)cc(C)cc3C)n2)cc1C [Compound 1044, 6-(6-methoxy-5-methyl-3-pyridyl)-N-(1H-pyrazol-3-ylsulfonyl)-2-(2,4,6-trimethylphenoxy)pyridine-3-carboxamide]
++ (“++” means between 3 uM and 10 uM)	CCC(Oc1nc(C(C)(C)C)ccc1C(=O)NS(=O)(=O)c1cccc(N)n1)c1ccccc1 (centres unmarked) [Compound 1045, N-[(6-amino-2-pyridyl)sulfonyl]-6-tert-butyl-2-(1-phenylpropoxy)pyridine-3-carboxamide]
++ (“++” means between 3 uM and 10 uM)	CC(C)(C)c1ccc(C(=O)NS(=O)(=O)c2cccc(N)n2)c(Oc2ccccc2)n1 [Compound 1046, N-[(6-amino-2-pyridyl)sulfonyl]-6-tert-butyl-2-phenoxy-pyridine-3-carboxamide]
+++ (“+++” means <3 uM)	Cc1ccc(-c2ccc(C(=O)NS(=O)(=O)c3nccnc3N)c(Oc3c(C)cc(C)cc3C)n2)cc1 [Compound 1047, N-(3-aminopyrazin-2-yl)sulfonyl-6-(p-tolyl)-2-(2,4,6-trimethylphenoxy)pyridine-3-carboxamide]
+++ (“+++” means <3 uM)	Cc1cc(C)c(Oc2nc(-c3ccc4c(c3)CCO4)ccc2C(=O)NS(=O)(=O)c2cccc(N)n2)c(C)c1 [Compound 1048]
+++ (“+++” means <3 uM)	Cc1cc(C)c(Oc2nc(-c3cc(F)ccc3O)ccc2C(=O)NS(=O)(=O)c2cccc(N)n2)c(C)c1 [Compound 1049]
++ (“++” means between 3 uM and 10 uM)	Cc1cc(C)c(Oc2nc(C3CC3)ccc2C(=O)NS(=O)(=O)c2cccc(N)n2)c(C)c1 [Compound 1050, N-[(6-amino-2-pyridyl)sulfonyl]-6-cyclopropyl-2-(2,4,6-trimethylphenoxy)pyridine-3-carboxamide]
+++ (“+++” means <3 uM)	Cc1cc(C)c(Oc2nc(C3=CCC(C)CC3)ccc2C(=O)NS(=O)(=O)c2ccc[nH]c2=O)c(C)c1 (centres unmarked) [Compound 1052, 6-(4-methylcyclohexen-1-yl)-N-[(2-oxo-1H-pyridin-3-yl)sulfonyl]-2-(2,4,6-trimethylphenoxy)pyridine-3-carboxamide]
+++ (“+++” means <3 uM)	Cc1cc(C)c(Oc2nc(C(C)(C)C)ccc2C(=O)NS(=O)(=O)c2cccc(NCCN)n2)c(C)c1 [Compound 1054, N-[[6-(2-aminoethylamino)-2-pyridyl]sulfonyl]-6-tert-butyl-2-(2,4,6-trimethylphenoxy)pyridine-3-carboxamide]
++ (“++” means between 3 uM and 10 uM)	Cc1cc(C)c(CN2CCc3ccccc3CC2C(=O)NS(=O)(=O)c2cccc(N)n2)c(C)c1 (centres unmarked) [Compound 1055, N-[(6-amino-2-pyridyl)sulfonyl]-3-[(2,4,6-trimethylphenyl)methyl]-1,2,4,5-tetrahydro-3-benzazepine-4-carboxamide]
+++ (“+++” means <3 uM)	Cc1cc(C)c(Oc2nc(-c3ccc4ccn(C)c4c3)ccc2C(=O)NS(=O)(=O)c2cccc(N)n2)c(C)c1 [Compound 1056, N-[(6-amino-2-pyridyl)sulfonyl]-6-(1-methylindol-6-yl)-2-(2,4,6-trimethylphenoxy)pyridine-3-carboxamide]
+ (“+” means greater than 10 uM)	Cc1cc(C)c(Oc2nc(-c3ccnn3C)ccc2C(=O)NS(=O)(=O)c2cccc(N)n2)c(C)c1 [Compound 1057, N-[(6-amino-2-pyridyl)sulfonyl]-6-(2-methylpyrazol-3-yl)-2-(2,4,6-trimethylphenoxy)pyridine-3-carboxamide]
+++ (“+++” means <3 uM)	CC(C)CNc1cccc(-c2ccc(C(=O)NS(=O)(=O)c3cccc(N)n3)c(N3CC(C)CC3(C)C)n2)n1 (centres unmarked) [Compound 1059, N-[(6-amino-2-pyridyl)sulfonyl]-6-[6-(isobutylamino)-2-pyridyl]-2-(2,2,4-trimethylpyrrolidin-1-yl)pyridine-3-carboxamide]

SMILES	EC30
CC(C)COc1cc(F)cc(-c2ccc(C(=O)NS(=O)(=O)c3ccn[nH]3)c(N3C[C@@H](C)CC3(C)C)n2)c1 [Compound 1041, 6-(3-fluoro-5-isobutoxy-phenyl)-N-(1H-pyrazol-5-ylsulfonyl)-2-[(4S)-2,2,4-trimethylpyrrolidin-1-yl]pyridine-3-carboxamide]	+++ (“+++” means <3 uM)
CC(C)COc1cc(F)cc(-c2ccc(C(=O)NS(=O)(=O)c3cccc(N)n3)c(N3CC[C@@H](C)C3)n2)c1 [Compound 1051, N-[(6-amino-2-pyridyl)sulfonyl]-6-(3-fluoro-5-isobutoxy-phenyl)-2-[(3R)-3-methylpyrrolidin-1-yl]pyridine-3-carboxamide]	+++ (“+++” means <3 uM)
CC(C)COc1cc(F)cc(-c2ccc(C(=O)NS(=O)(=O)c3cccc(N)n3)c(OCC3(F)COC3)n2)c1 [Compound 1053, N-[(6-amino-2-pyridyl)sulfonyl]-6-(3-fluoro-5-isobutoxy-phenyl)-2-[(3-fluorooxetan-3-yl)methoxy]pyridine-3-carboxamide]	++ (“++” means between 3 uM and 10 uM)
CC(C)COc1cc(F)cc(-c2ccc(C(=O)NS(=O)(=O)c3ccn[nH]3)c(N3CCC[C@@H]3c3ccccc3)n2)c1 [Compound 1060, 6-(3-fluoro-5-isobutoxy-phenyl)-2-[(2R)-2-phenylpyrrolidin-1-yl]-N-(1H-pyrazol-5-ylsulfonyl)pyridine-3-carboxamide]	+++ (“+++” means <3 uM)
CC(C)COc1cc(F)cc(-c2ccc(C(=O)NS(=O)(=O)c3cccc(N)n3)c(N3CCC4(CC4)C3)n2)c1 [Compound 1061, N-[(6-amino-2-pyridyl)sulfonyl]-2-(6-azaspiro[2.4]heptan-6-yl)-6-(3-fluoro-5-isobutoxy-phenyl)pyridine-3-carboxamide]	+++ (“+++” means <3 uM)
